Test results published in ChEMBL document CHEMBL1201862, “PubChem BioAssay data set” (2004).
Active and inactive are the calls of the source. Cut-off read from the data, not from the text of the source, for most assays here: actives have a measured EC50 and inactives only a lower limit.

Legend:
[1] = target: T1, RNA-binding protein pos-1 (Caenorhabditis elegans, UniProt G5EF15); experiment: disruptors of C. elegans POS-1 RNA interaction – biochemical, fluorescence polarization, dose response (AID 1964);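 note: purified POS-1 fused to maltose binding protein made in E. coli; potency of compounds blocking POS-1 binding to fluorescent RNA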
T1 sequence (G5EF15 whole entry): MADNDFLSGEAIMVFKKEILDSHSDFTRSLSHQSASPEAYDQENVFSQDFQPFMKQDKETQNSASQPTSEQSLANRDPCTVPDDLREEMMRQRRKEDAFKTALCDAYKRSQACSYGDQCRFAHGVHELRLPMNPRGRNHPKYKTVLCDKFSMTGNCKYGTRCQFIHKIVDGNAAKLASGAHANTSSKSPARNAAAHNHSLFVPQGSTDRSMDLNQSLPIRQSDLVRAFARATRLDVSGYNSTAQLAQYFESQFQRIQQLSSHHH

[2] = target: T2, Zinc finger protein mex-5 (Caenorhabditis elegans, UniProt Q9XUB2); experiment: potency of MEX-5 RNA-binding blockers – biochemical, C. elegans, fluorescence polarization, dose response (AID 1960)
T2 sequence (Q9XUB2 whole entry): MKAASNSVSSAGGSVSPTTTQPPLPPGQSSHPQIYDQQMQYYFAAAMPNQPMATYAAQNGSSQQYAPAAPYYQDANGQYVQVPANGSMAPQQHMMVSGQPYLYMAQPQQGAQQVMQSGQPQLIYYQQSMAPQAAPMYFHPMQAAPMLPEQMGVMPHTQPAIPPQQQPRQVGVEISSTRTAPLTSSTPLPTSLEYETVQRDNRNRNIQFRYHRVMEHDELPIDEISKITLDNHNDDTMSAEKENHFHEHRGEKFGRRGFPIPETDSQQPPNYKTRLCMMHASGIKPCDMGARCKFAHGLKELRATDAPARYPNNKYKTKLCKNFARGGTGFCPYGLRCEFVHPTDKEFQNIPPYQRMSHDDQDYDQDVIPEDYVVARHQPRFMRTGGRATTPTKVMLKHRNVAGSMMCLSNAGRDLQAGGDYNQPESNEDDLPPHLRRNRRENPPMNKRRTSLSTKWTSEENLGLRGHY

[3] = target: T3, Short transient receptor potential channel 4 (Mus musculus, UniProt Q9QUQ5); experiment: calcium entry via TRPC4 opening agents – cell-based, HEK293 TRPC4/mu-opioid, Fluo-4 calcium, dose response (AID 434937); type: functional
T3 sequence (Q9QUQ5 whole entry): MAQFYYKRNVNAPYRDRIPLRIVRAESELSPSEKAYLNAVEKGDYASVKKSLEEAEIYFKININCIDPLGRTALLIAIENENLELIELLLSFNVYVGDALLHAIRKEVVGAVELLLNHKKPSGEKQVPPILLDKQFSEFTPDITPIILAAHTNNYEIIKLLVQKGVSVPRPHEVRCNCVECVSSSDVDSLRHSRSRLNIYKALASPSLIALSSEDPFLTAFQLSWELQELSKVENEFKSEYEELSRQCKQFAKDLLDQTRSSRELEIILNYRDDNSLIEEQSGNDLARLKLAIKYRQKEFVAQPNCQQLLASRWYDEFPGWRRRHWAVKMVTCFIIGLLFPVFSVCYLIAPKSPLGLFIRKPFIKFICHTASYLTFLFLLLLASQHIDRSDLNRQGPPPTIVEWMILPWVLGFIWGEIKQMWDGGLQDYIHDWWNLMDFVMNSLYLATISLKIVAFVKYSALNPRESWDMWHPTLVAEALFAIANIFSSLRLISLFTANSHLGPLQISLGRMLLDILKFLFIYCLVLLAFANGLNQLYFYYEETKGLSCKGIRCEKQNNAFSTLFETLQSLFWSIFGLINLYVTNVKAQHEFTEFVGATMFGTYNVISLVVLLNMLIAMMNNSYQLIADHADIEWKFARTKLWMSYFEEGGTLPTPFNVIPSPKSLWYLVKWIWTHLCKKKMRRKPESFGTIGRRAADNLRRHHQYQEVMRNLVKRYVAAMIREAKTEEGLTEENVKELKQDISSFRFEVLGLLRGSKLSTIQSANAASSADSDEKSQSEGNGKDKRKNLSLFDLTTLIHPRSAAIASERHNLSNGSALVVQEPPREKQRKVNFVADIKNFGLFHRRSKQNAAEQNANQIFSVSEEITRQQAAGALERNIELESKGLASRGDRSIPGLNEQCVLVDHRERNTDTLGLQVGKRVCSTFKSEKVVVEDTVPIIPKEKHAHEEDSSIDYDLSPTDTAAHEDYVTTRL

[4] = NIH3T3 cell viability loss – ATP luminescence, mouse fibroblasts, counter-screen, dose response (AID 2010); type: functional, cell-based;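 note: cells exposed to compound for about 90 hours before reading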
[5] = Trypanosoma cruzi growth suppression in host cells – NIH3T3 host cells, beta-gal luminescence, confirmation (AID 2044); type: functional, cell-based;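 note: intracellular parasites grown in NIH/3T3 mouse fibroblasts as host cells; luminescent beta-galactosidase reporter signal from transgenic T. cruzi replicating inside host cells; inhibitors lower the luminescence signal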
[6] = blockers of bursicon-stimulated LGR2 cAMP reporter – cell-based, HEK293, CRE-luciferase reporter, cherry pick, set 2, dose response (AID 743343); type: functional;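 note: transfected cells were stimulated with diluted bursicon conditioned medium after compound addition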
[7] = blockade of melanocortin 4 receptor signaling – cell-based, plate reader, cherry pick, counter-screen for LGR2 antagonist project, dose response (AID 743444); type: functional;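 note: transfected HEK 293 cells stimulated with alpha-MSH peptide; potency of inhibitors of the alpha-MSH evoked signal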

Row | SMILES | EC50 [1] | EC50 [2] | EC50 [3] | further results
1 | Cn1ncc2c(NNC(=O)c3ccc(O)cc3)ncnc21 | 39.5 µM (active) | 6.35 µM (active) |  | 
2 | COc1ccccc1N=C(S)NNC(=O)c1cc(C)n(C)n1 | 50.3 µM (active) | 58.4 µM (active) |  | 
3 | Cc1cccc(Oc2nc(-c3ccccn3)nc3ccccc23)c1 | > 300 µM (not active) | 173 µM (active) |  | 
4 | CC1CN(C2CC(C)(C)NC(C)(C)C2)CCC1=O (configuration not stated) | > 300 µM (not active) | > 300 µM (not active) |  | 
5 | CCCN(CCC)CCCNC(=O)C1CCN(S(=O)(=O)c2cccc3nsnc23)CC1 |  |  | 0.133 µM (active) | 
6 | COC(=O)C1CCN(Cc2cn(-c3ccccc3)nc2-c2ccc3c(c2)OCO3)CC1 |  |  | 1.88 µM (active) | 
7 | Cc1ccc(C)c(OCCCCCn2ccnc2)c1 |  |  | 3.35 µM (active) | EC50 [4]: 4.76 µM (active); EC50 [5]: 0.505 µM (active)
8 | c1ccc(-n2ncc3c(N4CCCCC4)ncnc32)cc1 |  |  |  | AC50 [6]: 1.94 µM (active); AC50 [7]: 2.83 µM (active)
9 | O=[N+]([O-])c1cc(-c2ccc([As](=O)(O)O)cc2)ccc1[As](=O)(O)O | 22.8 µM (inconclusive) | 18 µM (active) |  | 
